Measured values taken from ChEMBL document CHEMBL3885881, “DrugMatrix”.

Species: Rattus norvegicus
Experiment: DrugMatrix - Regimen: Daily Repeat
Assay type: toxicity, organism-based, Sprague-Dawley
Parameters: regimen Daily Repeat, gender Male, age 6-8 weeks
Conditions: in vivo, po, 90 mg/kg, route oral GAVAGE, dose level Low, vehicle 100 % WATER; for ALANINE AMINOTRANSFERASE / ALBUMIN / ALKALINE PHOSPHATASE / ASPARTATE AMINOTRANSFERASE / BLOOD UREA NITROGEN / CARBON DIOXIDE / CHLORIDE / CHOLESTEROL / CREATINE PHOSPHOKINASE / CREATININE / LACTATE DEHYDROGENASE / LIPASE / PHOSPHORUS / POTASSIUM / SODIUM / TOTAL BILIRUBIN / TOTAL PROTEIN / URIC ACID: tissue Plasma
[1] = 120 h, tissue Blood, time 5 day

CC(NC(C)(C)C)C(=O)c1cccc(Cl)c1 (stereo not drawn) [BUPROPION]
ABSOLUTE BASOPHIL (72 h, tissue Blood, time 3 day): 0 CELLS/uL
ABSOLUTE EOSINOPHIL (72 h, tissue Blood, time 3 day): 0 CELLS/uL
ABSOLUTE LYMPHOCYTE (72 h, tissue Blood, time 3 day): 10359.67 CELLS/uL
ABSOLUTE MONOCYTE (72 h, tissue Blood, time 3 day): 103.67 CELLS/uL
ABSOLUTE SEGMENTED NEUTROPHIL (72 h, tissue Blood, time 3 day): 603.33 CELLS/uL
BASOPHIL (72 h, tissue Blood, time 3 day): 0%
EOSINOPHIL (72 h, tissue Blood, time 3 day): 0%
ERYTHROCYTE COUNT (72 h, tissue Blood, time 3 day): 5.5 x10E6/uL
HEMATOCRIT (72 h, tissue Blood, time 3 day): 35.63%
HEMOGLOBIN (72 h, tissue Blood, time 3 day): 13.4 G/DL
LEUKOCYTE COUNT (72 h, tissue Blood, time 3 day): 11.07 x10E3/uL
LYMPHOCYTE (72 h, tissue Blood, time 3 day): 93.67%
MEAN CORPUSCULAR HEMOGLOBIN (72 h, tissue Blood, time 3 day): 24.4 pg
MEAN CORPUSCULAR HEMOGLOBIN CONCENTRATION (72 h, tissue Blood, time 3 day): 37.63 G/DL
MEAN CORPUSCULAR VOLUME (72 h, tissue Blood, time 3 day): 64.83 fL
MONOCYTE (72 h, tissue Blood, time 3 day): 1%
NEUTROPHIL (72 h, tissue Blood, time 3 day): 5.33%
NUCLEATED RED BLOOD CELLS (72 h, tissue Blood, time 3 day): 0 /100WBC
PLATELET COUNT (72 h, tissue Blood, time 3 day): 1176 x10E3/uL
ALANINE AMINOTRANSFERASE (72 h, time 3 day): 40 u/L
ALBUMIN (72 h, time 3 day): 4.5 G/DL
ALKALINE PHOSPHATASE (72 h, time 3 day): 417.67 u/L
ASPARTATE AMINOTRANSFERASE (72 h, time 3 day): 84.67 u/L
BLOOD UREA NITROGEN (72 h, time 3 day): 16.33 mg/dL
CARBON DIOXIDE (72 h, time 3 day): 31 mmol/L
CHLORIDE (72 h, time 3 day): 99.33 MEQ/L
CHOLESTEROL (72 h, time 3 day): 95 mg/dL
CREATINE PHOSPHOKINASE (72 h, time 3 day): 325 u/L
CREATININE (72 h, time 3 day): 0.19 mg/dL
LACTATE DEHYDROGENASE (72 h, time 3 day): 154.67 u/L
LIPASE (72 h, time 3 day): 9 u/L
PHOSPHORUS (72 h, time 3 day): 10.93 mg/dL
POTASSIUM (72 h, time 3 day): 6.49 MEQ/L
SODIUM (72 h, time 3 day): 143.13 MEQ/L
TOTAL BILIRUBIN (72 h, time 3 day): 0.17 mg/dL
TOTAL PROTEIN (72 h, time 3 day): 6.53 G/DL
URIC ACID (72 h, time 3 day): 0.73 mg/dL
ABSOLUTE BASOPHIL [1]: 0 CELLS/uL
ABSOLUTE EOSINOPHIL [1]: 55.33 CELLS/uL
ABSOLUTE LYMPHOCYTE [1]: 14977 CELLS/uL
ABSOLUTE MONOCYTE [1]: 411.67 CELLS/uL
ABSOLUTE SEGMENTED NEUTROPHIL [1]: 2222.67 CELLS/uL
BASOPHIL [1]: 0%
EOSINOPHIL [1]: 0.33%
ERYTHROCYTE COUNT [1]: 5.73 x10E6/uL
HEMATOCRIT [1]: 37.5%
LEUKOCYTE COUNT [1]: 17.67 x10E3/uL
LYMPHOCYTE [1]: 86.67%
MEAN CORPUSCULAR HEMOGLOBIN [1]: 24.83 pg
MEAN CORPUSCULAR HEMOGLOBIN CONCENTRATION [1]: 37.83 G/DL
MEAN CORPUSCULAR VOLUME [1]: 65.57 fL
MONOCYTE [1]: 2%
NEUTROPHIL [1]: 11%
NUCLEATED RED BLOOD CELLS [1]: 0 /100WBC
PLATELET COUNT [1]: 1410.67 x10E3/uL
ALANINE AMINOTRANSFERASE (120 h, time 5 day): 37.67 u/L
ALBUMIN (120 h, time 5 day): 4.67 G/DL
ALKALINE PHOSPHATASE (120 h, time 5 day): 328 u/L
ASPARTATE AMINOTRANSFERASE (120 h, time 5 day): 72 u/L
BLOOD UREA NITROGEN (120 h, time 5 day): 17.33 mg/dL
CARBON DIOXIDE (120 h, time 5 day): 32.33 mmol/L
CHLORIDE (120 h, time 5 day): 100 MEQ/L
CHOLESTEROL (120 h, time 5 day): 93.67 mg/dL
CREATINE PHOSPHOKINASE (120 h, time 5 day): 263 u/L
CREATININE (120 h, time 5 day): 0.21 mg/dL
LACTATE DEHYDROGENASE (120 h, time 5 day): 145 u/L
LIPASE (120 h, time 5 day): 9.33 u/L
PHOSPHORUS (120 h, time 5 day): 12.6 mg/dL
POTASSIUM (120 h, time 5 day): 8.49 MEQ/L
SODIUM (120 h, time 5 day): 144.5 MEQ/L
TOTAL BILIRUBIN (120 h, time 5 day): 0.23 mg/dL
TOTAL PROTEIN (120 h, time 5 day): 6.77 G/DL
URIC ACID (120 h, time 5 day): 1.6 mg/dL
